Legend:
Type in all cases: biochemical
Kdr = molecular target: T1, Kdr (Homo sapiens, UniProt P35968); assay: Kinase inhibition assay (33P transfer), Kdr; conditions: Table 3, class symbols; read-out: KDR-1
T1 construct: Kinases are expressed as either kinase domains or full length constructs; made in house
In short: (§1)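 Each kinase, expressed as a GST- or polyHis-tagged domain or full-length protein, phosphorylated plate-attached poly(Glu,Tyr) 4:1 or poly(Arg,Ser) 3:1 using 33P-ATP. Bound radioactivity was measured by scintillation after a 0.5% phosphoric acid wash.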

AKT = molecular target: T2, AKT (Homo sapiens, UniProt Q9Y243); assay: Kinase inhibition assay (33P transfer), AKT; conditions: Table 2, class symbols A-E; read-out: AKT3-1
T2 construct: Kinases are expressed as either kinase domains or full length constructs; made in house
T2 sequence (Q9Y243 whole entry, the tested form may be a part): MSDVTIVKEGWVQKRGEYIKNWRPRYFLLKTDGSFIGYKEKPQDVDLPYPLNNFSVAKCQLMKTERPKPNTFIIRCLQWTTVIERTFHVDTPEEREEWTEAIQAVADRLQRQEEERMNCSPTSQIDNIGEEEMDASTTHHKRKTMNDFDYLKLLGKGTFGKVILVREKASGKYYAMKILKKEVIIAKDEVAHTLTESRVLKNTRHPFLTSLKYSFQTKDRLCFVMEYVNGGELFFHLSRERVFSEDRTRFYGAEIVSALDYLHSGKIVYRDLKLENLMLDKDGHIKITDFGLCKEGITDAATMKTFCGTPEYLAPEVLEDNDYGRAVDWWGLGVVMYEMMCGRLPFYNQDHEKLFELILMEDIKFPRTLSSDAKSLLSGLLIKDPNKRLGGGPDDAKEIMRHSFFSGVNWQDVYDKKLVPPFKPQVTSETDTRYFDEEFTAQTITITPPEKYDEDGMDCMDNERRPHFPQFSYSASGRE
In short: as §1

IGFR-1 = molecular target: T3, IGFR-1 (Homo sapiens, UniProt P08069); assay: Kinase inhibition assay (33P transfer), IGFR-1; conditions: Table 2, class symbols A-E
T3 construct: Kinases are expressed as either kinase domains or full length constructs; made in house

PDGFRB = molecular target: T4, PDGFRB (Homo sapiens, UniProt P09619); assay: Kinase inhibition assay (33P transfer), PDGFRB; conditions: read-out: PDGFRB-1
T4 construct: Kinases are expressed as either kinase domains or full length constructs; made in house

Lck = molecular target: T5, Lck (Homo sapiens, UniProt P06239); assay: Kinase inhibition assay (33P transfer), Lck; conditions: Table 3, class symbols; read-out: Lck-1
T5 construct: Kinases are expressed as either kinase domains or full length constructs; made in house
T5 sequence (P06239 whole entry, species assumed, the tested form may be a part): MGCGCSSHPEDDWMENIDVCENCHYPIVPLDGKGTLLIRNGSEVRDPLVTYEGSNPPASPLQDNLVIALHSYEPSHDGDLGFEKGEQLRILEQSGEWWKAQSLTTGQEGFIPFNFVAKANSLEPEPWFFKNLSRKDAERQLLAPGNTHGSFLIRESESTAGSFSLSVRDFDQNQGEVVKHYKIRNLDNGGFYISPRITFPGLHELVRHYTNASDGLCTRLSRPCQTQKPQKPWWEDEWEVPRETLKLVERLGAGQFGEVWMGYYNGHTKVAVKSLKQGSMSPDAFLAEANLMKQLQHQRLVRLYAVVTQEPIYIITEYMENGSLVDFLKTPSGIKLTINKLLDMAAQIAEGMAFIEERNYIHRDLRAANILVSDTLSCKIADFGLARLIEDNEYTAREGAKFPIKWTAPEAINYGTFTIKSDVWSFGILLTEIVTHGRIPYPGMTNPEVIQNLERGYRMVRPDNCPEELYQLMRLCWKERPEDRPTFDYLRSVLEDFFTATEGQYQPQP
In short: as §1

Zap-70 = molecular target: T6, Zap-70 (Homo sapiens, UniProt P43403); assay: Kinase inhibition assay (33P transfer), Zap-70; conditions: Table 3, class symbols; read-out: Zap-1
T6 construct: Kinases are expressed as either kinase domains or full length constructs; made in house
T6 sequence (P43403 1-619): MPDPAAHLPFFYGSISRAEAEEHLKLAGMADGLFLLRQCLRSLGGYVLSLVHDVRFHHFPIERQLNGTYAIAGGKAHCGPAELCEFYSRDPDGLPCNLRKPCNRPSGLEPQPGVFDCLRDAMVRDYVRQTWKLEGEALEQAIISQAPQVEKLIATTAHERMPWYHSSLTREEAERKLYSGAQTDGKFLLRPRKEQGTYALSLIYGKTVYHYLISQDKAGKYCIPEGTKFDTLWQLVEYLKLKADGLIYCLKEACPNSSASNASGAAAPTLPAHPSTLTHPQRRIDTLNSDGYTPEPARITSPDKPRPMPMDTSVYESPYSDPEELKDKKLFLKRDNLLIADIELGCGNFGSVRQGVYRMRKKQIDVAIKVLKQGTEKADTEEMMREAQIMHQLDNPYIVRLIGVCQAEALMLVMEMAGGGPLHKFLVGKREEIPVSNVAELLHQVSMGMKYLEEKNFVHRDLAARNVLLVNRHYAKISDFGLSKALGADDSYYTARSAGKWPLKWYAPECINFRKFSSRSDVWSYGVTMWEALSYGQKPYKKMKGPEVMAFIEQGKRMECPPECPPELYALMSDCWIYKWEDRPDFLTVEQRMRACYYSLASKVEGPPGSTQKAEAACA
In short: as §1

ErbB2 = molecular target: T7, ErbB2 (Homo sapiens, UniProt P04626); assay: Kinase inhibition assay (33P transfer), ErbB2; conditions: read-out: ErbB2-2
T7 construct: Kinases are expressed as either kinase domains or full length constructs; made in house
T7 sequence (P04626 23-1255, species assumed): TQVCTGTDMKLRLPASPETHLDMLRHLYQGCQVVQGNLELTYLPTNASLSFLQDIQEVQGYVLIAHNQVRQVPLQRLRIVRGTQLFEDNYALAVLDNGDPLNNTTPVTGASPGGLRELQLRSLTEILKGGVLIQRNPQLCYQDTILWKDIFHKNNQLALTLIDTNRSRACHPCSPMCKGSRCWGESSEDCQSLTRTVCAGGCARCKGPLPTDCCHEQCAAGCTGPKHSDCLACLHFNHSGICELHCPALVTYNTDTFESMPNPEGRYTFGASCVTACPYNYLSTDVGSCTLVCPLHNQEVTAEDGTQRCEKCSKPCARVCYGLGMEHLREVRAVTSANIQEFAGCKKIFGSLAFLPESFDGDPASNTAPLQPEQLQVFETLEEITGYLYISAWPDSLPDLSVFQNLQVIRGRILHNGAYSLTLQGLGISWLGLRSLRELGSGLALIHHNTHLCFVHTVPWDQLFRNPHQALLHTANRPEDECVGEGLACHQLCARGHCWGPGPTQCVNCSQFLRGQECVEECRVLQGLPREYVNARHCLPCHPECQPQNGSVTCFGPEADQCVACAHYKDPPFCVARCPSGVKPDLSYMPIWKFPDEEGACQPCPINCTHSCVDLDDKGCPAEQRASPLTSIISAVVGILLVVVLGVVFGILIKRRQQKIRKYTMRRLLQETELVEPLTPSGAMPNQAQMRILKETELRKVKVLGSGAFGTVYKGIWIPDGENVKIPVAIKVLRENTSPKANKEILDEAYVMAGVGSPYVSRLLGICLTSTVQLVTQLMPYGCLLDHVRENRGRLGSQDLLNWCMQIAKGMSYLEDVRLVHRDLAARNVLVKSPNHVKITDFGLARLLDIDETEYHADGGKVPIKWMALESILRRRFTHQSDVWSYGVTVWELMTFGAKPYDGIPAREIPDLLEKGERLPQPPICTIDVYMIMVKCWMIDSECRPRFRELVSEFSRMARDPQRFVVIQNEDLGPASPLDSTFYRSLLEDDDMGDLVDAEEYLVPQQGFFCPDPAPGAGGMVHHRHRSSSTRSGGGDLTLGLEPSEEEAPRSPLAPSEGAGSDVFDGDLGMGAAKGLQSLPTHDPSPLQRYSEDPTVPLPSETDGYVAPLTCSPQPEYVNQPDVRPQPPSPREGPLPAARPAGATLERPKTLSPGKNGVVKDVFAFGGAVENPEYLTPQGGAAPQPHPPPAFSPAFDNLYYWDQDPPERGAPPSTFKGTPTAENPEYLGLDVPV
In short: (§2)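 Recombinant kinase domains or full-length GST- or His-tagged constructs, from E. coli or baculovirus/High Five cells, sometimes with regulatory polypeptides. Transfer of 33P from ATP to plate-bound poly(Glu,Tyr) 4:1 or poly(Arg,Ser) 3:1 counted by liquid scintillation after phosphoric acid wash; IC50 is the concentration halving incorporation.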

Itk = molecular target: T8, Itk (Homo sapiens, UniProt Q08881); assay: Kinase inhibition assay (33P transfer), Itk; conditions: Table 3, class symbols; read-out: Itk-1
T8 construct: Kinases are expressed as either kinase domains or full length constructs; made in house
T8 sequence (Q08881 1-620): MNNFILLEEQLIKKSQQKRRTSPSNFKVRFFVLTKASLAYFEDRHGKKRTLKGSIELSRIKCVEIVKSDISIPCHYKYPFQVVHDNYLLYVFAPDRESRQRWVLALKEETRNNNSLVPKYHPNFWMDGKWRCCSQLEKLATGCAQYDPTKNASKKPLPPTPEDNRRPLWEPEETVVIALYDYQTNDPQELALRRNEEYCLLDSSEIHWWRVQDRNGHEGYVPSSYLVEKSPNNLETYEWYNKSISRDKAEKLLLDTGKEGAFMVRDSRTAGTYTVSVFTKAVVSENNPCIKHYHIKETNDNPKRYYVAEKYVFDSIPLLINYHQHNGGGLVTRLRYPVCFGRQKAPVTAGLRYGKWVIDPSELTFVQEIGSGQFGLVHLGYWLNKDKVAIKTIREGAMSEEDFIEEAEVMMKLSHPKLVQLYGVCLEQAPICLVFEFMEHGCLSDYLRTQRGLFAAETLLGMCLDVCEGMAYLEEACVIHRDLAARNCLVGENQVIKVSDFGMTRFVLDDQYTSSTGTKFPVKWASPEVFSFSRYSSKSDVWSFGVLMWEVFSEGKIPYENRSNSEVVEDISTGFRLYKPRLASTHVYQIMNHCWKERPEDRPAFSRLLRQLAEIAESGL
In short: as §2

c-Met = molecular target: T9, c-Met (Homo sapiens, UniProt P08581); assay: Kinase inhibition assay (33P transfer), c-Met; conditions: Table 2, class symbols A-E; read-out: Met-1
T9 construct: Kinases are expressed as either kinase domains or full length constructs; made in house
T9 sequence (P08581 25-1390): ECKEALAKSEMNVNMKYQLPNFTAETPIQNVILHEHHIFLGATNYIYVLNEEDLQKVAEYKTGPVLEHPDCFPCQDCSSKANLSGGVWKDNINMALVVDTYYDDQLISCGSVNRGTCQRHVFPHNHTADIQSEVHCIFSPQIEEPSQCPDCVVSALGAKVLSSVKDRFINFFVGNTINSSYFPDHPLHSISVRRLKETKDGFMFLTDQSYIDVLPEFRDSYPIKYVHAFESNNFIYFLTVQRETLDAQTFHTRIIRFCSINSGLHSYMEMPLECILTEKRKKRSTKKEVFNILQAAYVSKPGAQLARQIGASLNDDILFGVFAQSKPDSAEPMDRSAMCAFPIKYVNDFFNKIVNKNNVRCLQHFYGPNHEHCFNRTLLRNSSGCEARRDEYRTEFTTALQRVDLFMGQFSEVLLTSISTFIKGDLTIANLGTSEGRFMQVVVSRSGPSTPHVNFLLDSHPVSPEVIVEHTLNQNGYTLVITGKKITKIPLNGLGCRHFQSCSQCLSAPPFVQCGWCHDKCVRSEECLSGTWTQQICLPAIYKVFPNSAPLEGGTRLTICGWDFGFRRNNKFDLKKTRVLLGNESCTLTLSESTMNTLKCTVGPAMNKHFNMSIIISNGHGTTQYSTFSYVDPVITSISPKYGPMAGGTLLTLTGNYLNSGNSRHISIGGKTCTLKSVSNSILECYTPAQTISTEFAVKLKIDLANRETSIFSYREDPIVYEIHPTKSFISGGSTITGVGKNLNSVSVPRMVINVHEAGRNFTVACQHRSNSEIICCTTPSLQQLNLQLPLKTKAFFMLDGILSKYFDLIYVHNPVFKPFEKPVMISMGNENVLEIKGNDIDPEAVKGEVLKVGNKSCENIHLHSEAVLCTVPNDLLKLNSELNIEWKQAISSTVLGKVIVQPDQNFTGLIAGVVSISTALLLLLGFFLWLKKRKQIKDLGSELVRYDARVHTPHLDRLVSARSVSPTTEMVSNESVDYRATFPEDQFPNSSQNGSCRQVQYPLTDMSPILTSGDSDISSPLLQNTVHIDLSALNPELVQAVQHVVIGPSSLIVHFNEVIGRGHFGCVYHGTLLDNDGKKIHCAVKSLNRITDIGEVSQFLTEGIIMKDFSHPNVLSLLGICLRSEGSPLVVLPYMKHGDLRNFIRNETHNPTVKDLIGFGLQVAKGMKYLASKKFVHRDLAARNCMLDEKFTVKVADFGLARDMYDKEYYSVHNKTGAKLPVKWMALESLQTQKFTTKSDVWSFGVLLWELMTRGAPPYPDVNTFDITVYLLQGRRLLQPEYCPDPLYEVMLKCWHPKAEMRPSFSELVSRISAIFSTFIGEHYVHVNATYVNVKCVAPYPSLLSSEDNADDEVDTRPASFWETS
In short: as §2

EGFR = molecular target: T10, EGFR (Homo sapiens, UniProt P00533); assay: Kinase inhibition assay (33P transfer), EGFR; conditions: Table 2, class symbols A-E; read-out: EGFR-1
T10 construct: Kinases are expressed as either kinase domains or full length constructs; made in house
In short: as §2

T1 sequence (P35968 20-1356, species assumed): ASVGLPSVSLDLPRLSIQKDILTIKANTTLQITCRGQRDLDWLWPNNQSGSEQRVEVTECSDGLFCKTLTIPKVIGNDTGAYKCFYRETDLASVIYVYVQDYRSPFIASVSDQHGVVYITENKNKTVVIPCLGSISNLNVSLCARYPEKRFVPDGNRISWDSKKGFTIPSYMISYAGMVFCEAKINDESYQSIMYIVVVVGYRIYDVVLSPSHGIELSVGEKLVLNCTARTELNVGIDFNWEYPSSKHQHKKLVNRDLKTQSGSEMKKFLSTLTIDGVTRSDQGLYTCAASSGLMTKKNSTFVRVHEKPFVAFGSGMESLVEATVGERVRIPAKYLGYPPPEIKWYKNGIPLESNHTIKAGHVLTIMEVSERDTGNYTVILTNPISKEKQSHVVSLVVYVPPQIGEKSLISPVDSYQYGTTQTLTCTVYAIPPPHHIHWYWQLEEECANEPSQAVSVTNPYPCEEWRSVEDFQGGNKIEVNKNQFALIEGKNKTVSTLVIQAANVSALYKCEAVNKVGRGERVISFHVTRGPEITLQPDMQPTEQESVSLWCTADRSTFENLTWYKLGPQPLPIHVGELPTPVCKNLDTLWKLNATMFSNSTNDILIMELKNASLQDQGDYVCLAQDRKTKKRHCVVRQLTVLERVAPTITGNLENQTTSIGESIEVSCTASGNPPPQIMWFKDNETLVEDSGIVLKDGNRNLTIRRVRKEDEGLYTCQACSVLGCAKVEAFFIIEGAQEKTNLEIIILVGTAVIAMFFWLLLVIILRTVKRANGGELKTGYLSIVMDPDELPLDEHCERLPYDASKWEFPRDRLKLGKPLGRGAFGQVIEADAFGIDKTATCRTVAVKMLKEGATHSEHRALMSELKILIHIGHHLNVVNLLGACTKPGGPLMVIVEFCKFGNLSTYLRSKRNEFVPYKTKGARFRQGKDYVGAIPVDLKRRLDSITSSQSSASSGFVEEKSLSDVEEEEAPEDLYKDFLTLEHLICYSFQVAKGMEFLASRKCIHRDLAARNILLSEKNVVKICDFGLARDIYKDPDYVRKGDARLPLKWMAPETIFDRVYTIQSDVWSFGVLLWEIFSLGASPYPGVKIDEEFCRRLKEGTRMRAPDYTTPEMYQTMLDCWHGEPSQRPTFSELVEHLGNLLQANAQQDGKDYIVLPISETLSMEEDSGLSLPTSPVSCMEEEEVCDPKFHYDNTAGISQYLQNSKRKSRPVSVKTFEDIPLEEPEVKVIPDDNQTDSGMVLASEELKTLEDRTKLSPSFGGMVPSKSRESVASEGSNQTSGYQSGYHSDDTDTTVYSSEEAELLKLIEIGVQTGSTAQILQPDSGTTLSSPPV

IC50 (Kdr) | IC50 (AKT) | IC50 (IGFR-1) | IC50 (PDGFRB) | IC50 (Lck) | IC50 (Zap-70) | IC50 (ErbB2) | IC50 (Itk) | IC50 (c-Met) | IC50 (EGFR) | Compound
1.04 to 6.25 µM | > 11.7 µM | > 11.7 µM | 1.04 to 6.25 µM | > 11.7 µM | > 11.7 µM | > 11.7 µM | 9.12 to 11.7 µM | 1.04 to 6.25 µM | 1.04 to 6.25 µM | Cc1ccc(Cl)cc1Nc1ncnc(N2c3ccc(F)cc3CCC2C)n1 (stereo not shown) [Compound 644]
> 10.5 µM | > 10.5 µM | > 10.5 µM | > 10.5 µM | > 10.5 µM | > 10.5 µM | < 0.935 µM | > 10.5 µM | > 10.5 µM | < 0.935 µM | COc1cc(Nc2ncnc(N3CCCc4ccc(Cl)cc43)n2)cc(OC)c1OC [Compound 645]
> 9.25 µM | > 9.25 µM | > 9.25 µM | > 9.25 µM | > 9.25 µM | > 9.25 µM | 0.822 to 4.93 µM | > 9.25 µM | 7.2 to 9.25 µM | < 0.822 µM | CN(c1ccc2c(cnn2Cc2ccccc2)c1)c1ncnc(Nc2cccc(Br)c2)n1 [Compound 667]
5.69 to 8.3 µM | > 10.7 µM | > 10.7 µM | 8.3 to 10.7 µM | 5.69 to 8.3 µM | > 10.7 µM | < 0.949 µM | > 10.7 µM | 5.69 to 8.3 µM | < 0.949 µM | Cc1cccc(Nc2ncnc(N(C)c3ccc4c(cnn4Cc4ccccc4)c3)n2)c1 [Compound 668]
0.856 to 5.13 µM | > 9.62 µM | > 9.62 µM | 0.856 to 5.13 µM | 0.856 to 5.13 µM | > 9.62 µM | < 0.856 µM | > 9.62 µM | 7.49 to 9.62 µM | < 0.856 µM | COc1ccc(Nc2ncnc(N(C)c3ccc4c(cnn4Cc4ccccc4)c3)n2)cc1OC [Compound 669]
0.913 to 5.48 µM | > 10.3 µM | > 10.3 µM | 0.913 to 5.48 µM | 0.913 to 5.48 µM | > 10.3 µM | < 0.913 µM | > 10.3 µM | < 0.913 µM | < 0.913 µM | CN(c1cccc(Br)c1)c1ncnc(Nc2cccc(Cc3nnn[nH]3)c2)n1 [Compound 670]
0.817 to 4.9 µM | > 9.19 µM | 4.9 to 7.15 µM | 0.817 to 4.9 µM | 7.15 to 9.19 µM | > 9.19 µM | < 0.817 µM | 7.15 to 9.19 µM | < 0.817 µM | < 0.817 µM | CN(c1ccc2c(cnn2Cc2ccccc2)c1)c1ncnc(Nc2cccc(Cc3nnn[nH]3)c2)n1 [Compound 671]
5.43 to 7.92 µM | > 10.2 µM | > 10.2 µM | 0.905 to 5.43 µM | 5.43 to 7.92 µM | 7.92 to 10.2 µM | 5.43 to 7.92 µM | > 10.2 µM | 0.905 to 5.43 µM | < 0.905 µM | CN(c1cccc(Cl)c1)c1ncnc(Nc2ccc3nn(Cc4ccccc4)cc3c2)n1 [Compound 673]
1.09 to 6.56 µM | > 12.3 µM | > 12.3 µM | 1.09 to 6.56 µM | 1.09 to 6.56 µM | > 12.3 µM | 1.09 to 6.56 µM | > 12.3 µM | 1.09 to 6.56 µM | < 1.09 µM | CN(c1cccc(Cl)c1)c1ncnc(Nc2ccc3c(cnn3C)c2)n1 [Compound 674]
1.09 to 6.56 µM | > 12.3 µM | 6.56 to 9.57 µM | 1.09 to 6.56 µM | 1.09 to 6.56 µM | > 12.3 µM | < 1.09 µM | > 12.3 µM | 1.09 to 6.56 µM | < 1.09 µM | CN(c1cccc(Cl)c1)c1ncnc(Nc2ccc3nn(C)cc3c2)n1 [Compound 675]
